Drawing on ChEMBL document CHEMBL1127967, “Argatroban analogs: Synthesis, thrombin inhibitory activity and cell permeability of aminoheterocyclic guanidine surrogates” (Bioorg Med Chem Lett, 1994), this text covers pKa, IC50 and Permeability coefficient for 8 compounds.

By pKa is commonly meant the pH at which an ionisable group is half protonated. Lower therefore signals a group that gives up its proton readily.

SMILES strings stand for the structures.

Data set [1] is described as follows: pKa value of the compound. The format is physicochemical.
The target of another data set is Prothrombin (Homo sapiens, UniProt P00734). The data set is described as follows: Inhibitory activity against thrombin was measured by its ability to cleave the synthetic substrate S-2238(D-Phe-Pip-Arg-pNA). The settings on record: read-out: I50.
A further data set has as its system Caco-2. The data set is described as follows: compound was evaluated for their ability to cross a Caco-2-monolayer. The format is functional, cell-based. The settings on record: Homo sapiens.

Turning to `COc1ccc2ccc(S(=O)(=O)N[C@@H](CCCNc3cccnn3)C(=O)N3CCC(C)CC3)cc2c1`, the pKa in data set [1] worked out at 5.2. For the same compound, at Prothrombin, the IC50 was found to be 2.3 µM. The Permeability coefficient with Caco-2 was 12.1 ×10⁻⁶ cm/s.

In data set [1], `CC1CCN(C(=O)[C@H](CCCNc2cccnn2)NS(=O)(=O)c2ccc3ccccc3c2)CC1` came in with a pKa of 5.2. In addition, on Prothrombin, the IC50 was 24 µM. The Permeability coefficient in the data set with Caco-2 worked out at 12.3 ×10⁻⁶ cm/s.

For `CC1CCN(C(=O)[C@H](CCCNc2cnccn2)NS(=O)(=O)c2ccc3ccccc3c2)CC1`, in data set [1], the pKa was determined as 3.1. For the same compound, the IC50 at Prothrombin is more than 40 µM. Besides, in the data set on Caco-2, the Permeability coefficient amounted to 14.2 ×10⁻⁶ cm/s.

In data set [1], `CC1CCN(C(=O)[C@H](CCCNc2ncccn2)NS(=O)(=O)c2ccc3ccccc3c2)CC1` had a pKa of 3.5. In addition, at Prothrombin, the IC50 is more than 115 µM. The same compound showed a Permeability coefficient with Caco-2 of 13.8 ×10⁻⁶ cm/s.

With `CC1CCN(C(=O)[C@H](CCCN=C(N)N)NS(=O)(=O)c2ccc3ccccc3c2)CC1`, the pKa in data set [1] amounted to 14. Further, the IC50 on Prothrombin amounted to 2.5 µM. Besides, in the data set with Caco-2, the Permeability coefficient is 0.4 ×10⁻⁶ cm/s.

As for `COc1ccc2ccc(S(=O)(=O)N[C@@H](CCCNc3ccccn3)C(=O)N3CCC(C)CC3)cc2c1`, the pKa in data set [1] was 6.9. Besides, at Prothrombin, the IC50 was 0.47 µM. This compound registered a Permeability coefficient in the data set on Caco-2 of 3 ×10⁻⁶ cm/s.

In data set [1], `CC1CNc2c(cccc2S(=O)(=O)NC(CCCNC(=N)N)C(=O)N2CC[C@@H](C)C[C@@H]2C(=O)O)C1` (single isomer, unassigned) [ARGATROBAN] gave a pKa of 14. In addition, the Permeability coefficient with Caco-2 was 0.3 ×10⁻⁶ cm/s.

The compound `CC1CCN(C(=O)[C@H](CCCNc2ccccn2)NS(=O)(=O)c2ccc3ccccc3c2)CC1` yielded a pKa in data set [1] of 6.9. The IC50 on Prothrombin stood at 5.5 µM.
